Data as given in patent publication US12514797B2, “Cosmetic and dermatological compositions” (Northeastern University, priority 2017, dated 2026).

Tests used:
[1] = Spectrophotometric pH titration, experimental determination of pKa; type: physicochemical; conditions: water titrated with 0.05 M NaOH, extrapolated from absorbance intensity at 430 and 360 nm as a function of pH
Description: The two observed pKas are indicated by the dashed lines at 5.50 and 8.40.
The purified xanthommatin (˜5 mg) was suspended in water (5.00 mL) and titrated to a starting pH of 2.08. The solution was then titrated with 0.05 M NaOH until the pH reached 10.37. During each point in the titration, the solution pH and absorbance was determined. pH levels were measured using a Fisher Scientific Accumet AP 110 pH meter (Fisher Scientific, Waltham, MA).
The pH-dependent color change of a […] solution of xanthommatin was monitored over a pH range of 1.90-10.30 using spectrophotometry. Three distinct patterns were associated with the increasing pH (see FIG. 8). At pH<3.00, the pigment was pale-yellow with a λmax˜430 nm. […] To determine whether the observed intensity in color was reversible at the lower pH values, the pH of xanthommatin was next cycled between acidic (2.00-3.00) and neutral (pH 6.00-8.00) conditions six times, and the absorbance intensity at 430 nm was followed. […]
If the presence or absence of protons were indeed influencing the resultant visible color, then individual acid dissociation constants (Ka) could be experimentally extrapolated and used to follow compositional changes in the biochrome as a function of pH. To test this, it was determined how absorbance intensities varied as a function of pH at both 430 and 360 nm (see FIG. 9). […]

[2] = pH-dependent stability (MSMS analysis of pigment hydrolysis); type: physicochemical; conditions: pH values approached and exceeded 10.00, mass addition of water
[3] = UV absorbance in vitro, SPF calculated using the Mansur equation, comparison to known UV-filters; type: physicochemical
Description: FIG. 12 provides absorbance curves (see top graph) and corresponding comparator values (see table) of Xa to known UV-filters, avo- and oxy-benzone. […] X−1 represents synthetic Xa; X−2 represents Xa extracted from squid at 0.10 mM. SPF was calculated using the Mansur equation and critical wavelength was determined as the wavelength at which 90% of the absorbance curve resides.
Xa is the simplest and most common ommochrome and is formed (along with the reduced dihydro-xanthommatin and ommatin subclasses) via the condensation of two hydroxykynurenine residues in the kynurenine pathway of tryptophan metabolism. Once synthesized, Xa is stabilized within granules (diameter 530 nm) that are resistant to photodegradation. An added predicted functionality, although largely unexplored in vitro and in vivo, is that Xa behaves as a free-radical scavenger. Together, with the data presented in FIG. 12 showing that Xa absorbs UV radiation ˜2× higher than current chemical filters at the same concentrations, it is expected that Xa and Xa-based materials can function as UV-filters that can not only protect against solar irradiation but can also be used in preventative skin care as free-radical scavengers (while maintaining biocompatibility).
(§1) Given its propensity to form granules in natural systems (FIG. 3, left) and its impressive UV-absorptive properties in vitro (FIG. 12, see Table 2 below), Xa was encapsulated within biodegradable particles designed to improve its durability and use as a topical UV-filter. The complex refractive index (RI) of Xa was experimentally determined as 1.92+0.014i. This uniquely high RI is important, especially when considering the design criteria of the particle based UV-filters. For instance, when assembled into nano- and micro-particles, Xa will scatter more light than it absorbs at diameters >200 nm, and this difference is maximized at sizes >[…] (FIG. 13). Because light scattering is an important feature for heat dissipation and reflection for coatings, it can be preferable to design particles with diameters ranging from 1-10 μm.

[4] = Hydroxyl radical antioxidant capacity (HORAC) activity assay; type: biochemical; conditions: compared to commercially available antioxidant standard gallic acid
Text: FIG. 14 illustrates the hydroxyl radical antioxidant capacity (HORAC) activity assay activity of Xa. The HORAC assay was used to evaluate the application of Xa as a natural antioxidant. Xa consumes hydroxyl radicals produced by the activation of the fenton reagent preventing the degradation of the fluorescein probe.
Oxygen derived species such as superoxide radical, hydrogen peroxide, singlet oxygen and hydroxyl radical are well known to be cytotoxic and have been implicated in the onset of a wide array of human diseases. These “compounds” are often referred to as reactive oxygen species (ROS). ROS normally exist in all aerobic cells in balance with biochemical antioxidants; however, this critical equilibrium can be disrupted due to excess ROS or antioxidant depletion and can result in oxidative stress. Antioxidants are used in cosmetics, pharmaceuticals, food and on the skin directly minimize the undesirable reactions resulting from oxidation caused by ROS. Commonly used antioxidants typically contain a combination of phenol, benzene and alkene functional groups. These key features work to inhibit the propagation of ROS through resonance stabilization of free radicals. […] The ability of particles and pigments (free and encapsulated) to […] ROS are measured using the colorimetric hydroxyl radical antioxidant capacity (HORAC) assay (FIG. 14). […]

[5] = Complex refractive index determination; type: physicochemical
Text: as §1

[6] = Electrochromic device (Xa in PEDOT:PSS) redox-dependent color switch, CIE 1931 chromaticity and transmittance; type: physicochemical; conditions: darkest yellow (O3) to red (R3) films, 555 nm
Text: Even though its exact mechanism for electron transfer remains unknown, phenoxazone-based materials are believed to undergo a reversible reduction to dihydroxanthommatin, gaining two electrons and two protons during its redox-dependent color change. These principles are used to show how the pigment stabilized in a polymer (PEDOT-PSS) matrix is capable of switching color in response to different applied voltages. When a double potential step from +1.5 V to −1.5 V vs ground was applied to the device, a redox-dependent color switch was observed (FIG. 11). The current required to switch from one colored state to another was plotted as a function of time upon application of a square-wave potential (FIG. 10). […] In each case, the switching time for each step was calculated as the time required to reach 95% of the maximum current.
The spectral tunability of these materials was also investigated by varying the ratio between PEDOT:PSS and pigment (FIG. 11). Different concentrations of xanthommatin (from 0.04 mg/ml to 0.16 mg/ml) were used while the amount of PEDOT:PSS remained constant. The color of each film activated at the different redox states was measured using the International Commission of Illumination (CIE) 1931 xy-chromaticity diagram. […]
Because the human eye is most sensitive at 555 nm, all transmittance values were calculated at this wavelength without any background correction.

Q: Which results are given for `NC(CC(=O)c1cccc2oc3cc(=O)c4[nH]c(C(=O)O)cc(=O)c4c-3nc12)C(=O)O` (stereo not shown) [Xa, xanthommatin]?
A: pKa [1]: 5.5; pigment hydrolysis [2]: pigment hydrolysis occurred; SPF in vitro ([3]; 0.062 mM): 3; SPF in vitro ([3]; 0.125 mM): 14; SPF in vitro ([3]; 0.250 mM): 38; UV radiation absorption relative to current chemical filters ([3]; same concentrations, FIG. 12 comparators avo- and oxy-benzone): ~2 ×; HORAC activity [4]: enhanced activity in comparison to commercially available standard gallic acid; HORAC activity ([4]; listed as Xanthommatin): enhanced activity when compared to commercially available antioxidant gallic acid; complex refractive index (RI) [5]: 1.92+0.014i; optical contrast (ΔT %) [6]: 25.4%
